Test results from US20080182781A1, “Process for the Preparation of Peptides” (priority 2004, published 2008).
Read-outs that look alike come from different tables or passages of the source. Where a SMILES comes first, the peptide text is derived from it. Bridges are numbered along the chain shown (N, C = ends). [ ]: non-standard residue; d: D form. hArg = N=C(N)NCCCC[C@H](N)C(=O)O; Mpa = O=C(O)CCS

Tested on: ADP induced platelet aggregation
Format: cell-based
Settings: human PRP
Description: The bioactivity of peptide of formula (1) is checked using platelet aggregation inhibition assay using 4× Laser Aggregometer (EMA). Freshly venous Blood from consented human donors are drawn and collected in citrated buffer. The platelet rich plasma (PRP) and platelet poor plasma are separated by centrifugation. Platelet count in PRP is adjusted to 2-3×10^8 platelets/ml. After adjusting the baseline aggregation with PPP, the PRP was treated with […] ADP and checked the percent total aggregation. The PRP is then first incubated with varying concentrations of reference standard and synthesized peptide of formula (1). ADP is then added to check the inhibition of aggregation. The reproducibility of bioactivity of synthesized peptide of formula 1 is checked several times and compared with reference standards.

## N=C(N)NCCCC[C@@H]1NC(=O)CCSSC[C@@H](C(N)=O)NC(=O)[C@@H]2CCCN2C(=O)[C@H](Cc2c[nH]c3ccccc23)NC(=O)[C@H](CC(=O)O)NC(=O)CNC1=O [SP of formula 1] ([Mpa][hArg]GDWPC-NH2; disulfide 1-7)
Donor 1, 140 nM
  % Inhibition of ADP induced aggregation: 44.6%
Donor 1, 280 nM
  % Inhibition of ADP induced aggregation: 61.40%
Donor 2, 70 nM
  % Inhibition of ADP induced aggregation: 46.66%
Donor 2, 140 nM
  % Inhibition of ADP induced aggregation: 51.16%
Donor 2, 280 nM
  % Inhibition of ADP induced aggregation: 67.74%
Donor 3, 70 nM
  % Inhibition of ADP induced aggregation: 57.42%
Donor 3, 140 nM
  % Inhibition of ADP induced aggregation: 60.28%
Donor 4, 140 nM
  % Inhibition of ADP induced aggregation: 20.52%
Donor 4, 280 nM
  % Inhibition of ADP induced aggregation: 42.73%
Donor 5, 70 nM
  % Inhibition of ADP induced aggregation: 52.63%
Donor 5, 140 nM
  % Inhibition of ADP induced aggregation: 87.21%
Donor 6, 140 nM
  % Inhibition of ADP induced aggregation: 82.92%
12 experiments, read-out: IC50 dose, inhibition of ADP induced platelet aggregation
  IC50: < 140 nM
Seen in most of the samples
  inhibition of ADP induced platelet aggregation: more than 50%
